The record followed here is patent US5905089A, “Use of sesquiterpene lactones for treatment of severe inflammatory disorders” (Board of Supervisors of Louisiana State University and …, priority 1998, dated 1999).

For experiment [1], the system named is ERK-2. The experiment in a line: Kinase activity of ERK-2 in RAW 264.7 cells (in-gel kinase assay, MBP substrate). Format: cell-based, murine. Particulars: 3h pretreatment, LPS 1 μg/ml 30 min; FIG. 5. Here is the method: (§1) Rat (Sprague-Dawley) alveolar macrophages were collected by broncho-alveolar lavage as described by Lee et al., J. Biol. Chem., vol. 267, pp. 25934-25938 (1992). The murine macrophage cell line RAW 264.7 (ATCC no. TIB-71) was cultured in Dubecco's modified Eagle's medium (DMEM) containing 10% heat-inactivated fetal bovine serum (FBS, Intergen). For the cyclooxygenase activity assay, cells were seeded in 24 well plates, and after near-confluency, cells were treated with aspirin (250 μM) for 2.5h to inactivate endogenous cyclooxygenase. […] COX activity was determined by measuring prostaglandin E2 concentrations in cells incubated with arachidonic acid (30 μM) for 10 minutes as described in Lee et al. (1992).
(§2) This assay was performed according to the method described by Kameshita et al., Anal. Biochem., vol. 183, pp. 139-143 (1989) using myelin basic protein (MBP) as a substrate.
(§3) Parthenolide suppressed LPS-stimulated tyrosine phosphorylation of various proteins in RAW 264.7 cells as assessed by antiphosphotyrosine immunoblot, depicted in FIG. 5A. This inhibition was correlated with the suppressed expression of COX-2 and IL-1α. […] Therefore, the extent of tyrosine phosphorylation of JNK-1 was assessed by the electrophoretic mobility shift of phosphorylated JNK-1 as shown in FIG. 5B. […]

The subject of another experiment is TNFα. The experiment in a line: LPS-induced TNFα production in alveolar macrophages (bioassay using L929 cells). It counts as cell-based, Rat (Sprague-Dawley). Particulars: LPS 10 μg/ml, 16h, FIG. 2. As for the experimental part: as §1
Recovered COX activity in cells pretreated with aspirin reflected de novo synthesized COX-2. Alveolar macrophages pretreated with aspirin were incubated with LPS (10 μg/ml) and various concentrations of parthenolide for 16h. The activity of de novo synthesized COX-2 was determined by measuring the levels of PGE2 produced from exogenous arachidonic acid. Activity of TNFα was determined by bioassay using L929 cells as described by Aggarwal et al., J. Biol. Chem., vol. 260, pp. 2345-2354 (1985). […] Values in FIG. 2 are the means of triplicate samples for TNFα and duplicate samples for PGE2.

Experiment [2] has as its system COX-2. The experiment in a line: COX-2 expression in LPS-stimulated RAW 264.7 cells (Western blot). It counts as cell-based, murine. The following applies: LPS 1 μg/ml; FIG. 5D. As for the experimental part:
as §1
(§4) The protein levels of COX-2 and GAPDH were assessed by Western blot analysis using polyclonal antibodies as described in Lee et al. (1992). Polyclonal antibodies for IL-1α and JNK-1 were purchased from Genzyme and Santa Cruz Biotech, respectively.
Parthenolide suppressed LPS-stimulated tyrosine phosphorylation of various proteins in RAW 264.7 cells as assessed by antiphosphotyrosine immunoblot, depicted in FIG. 5A. This inhibition was correlated with the suppressed expression of COX-2 and IL-1α. RAW 264.7 cells were pretreated with parthenolide in various concentrations or with herbimycin A (0.5 μg/ml) for 3h, and then stimulated with LPS (1 μg/ml) in the presence of the inhibitors for 30 min. […] Therefore, the extent of tyrosine phosphorylation of JNK-1 was assessed by the electrophoretic mobility shift of phosphorylated JNK-1 as shown in FIG. 5B. Parthenolide inhibited tyrosine phosphorylation of JNK-1. Another protein tyrosine kinase inhibitor, herbimycin A ([…]), inhibited tyrosine phosphorylation of the MAPK subfamily.
The mechanism by which parthenolide inhibits protein tyrosine phosphorylation is not currently known. It has been speculated that the tyrosine kinase inhibitor herbimycin A inactivates p60^v-src kinase by irreversibly binding to the sulphydryl (SH) groups of p60^v-src kinase. Y. Uehara et al., Biochem. Biophys. Res. Commun., vol. 163, pp. 803-809 (1989). The inactivation by herbimycin may occur through conjugation between highly polarized double bonds in the benzoquinone moiety of herbimycin A and the SH group of sulphydryl compounds. Without wishing to be bound by this theory, the α-methylenebutyrolactone in parthenolide may interact with biological nucleophiles such as sulphydryl groups. Indeed, pretreating cells with sulphydryl compounds abrogated the inhibitory effect of parthenolide on LPS-induced activation of MAPKs as shown in FIG. 6A. […]
In general terms: In western blotting, separated proteins are transferred to a membrane and probed.

Another experiment concerns TNFα mRNA. Nature of the experiment: Steady state levels of TNFα mRNA in LPS-stimulated alveolar macrophages (RNase protection assay). It counts as cell-based, Rat (Sprague-Dawley). Particulars: FIG. 3B (2h) and FIG. 4 (parthenolide 1 μg/ml, time course). Here is the method:
as §1
Total cellular RNA was isolated by TRIzoL reagent (Gibco, BRL). The RNase protection assay was performed as described in Chanmugan et al. (1995).
In FIG. 3B, alveolar macrophages were incubated with LPS in the presence of various concentrations of parthenolide for 2h. Steady state levels of mRNA were determined by RNase protection assay. In FIG. 4, alveolar macrophages were incubated with LPS in presence of 1 μg/ml of parthenolide for specified time periods. The concentrations of mRNA were determined by RNase protection assay.

In experiment [3] the test system is ERK-2. Nature of the experiment: Tyrosine phosphorylation of ERK-2 in RAW 264.7 cells (antiphosphotyrosine immunoblot). Format: cell-based, murine. Particulars: 3h pretreatment, LPS 1 μg/ml 30 min; FIG. 5A. Here is the method: as §1
(§5) This detection technique was carried out essentially as described in Chanmugan et al. (1995) using 4G10 monoclonal antiphosphotyrosine antibody (UBI) and the ECL detection system (Amersham).
as §3

For experiment [4], the system named is COX-2. Nature of the experiment: COX-2 protein expression in LPS-stimulated alveolar macrophages (immunoblot). Format: cell-based, Rat (Sprague-Dawley). The following applies: 16h, FIG. 3A. Here is the method: as §1, §4
(§6) In FIG. 3A, alveolar macrophages were incubated with LPS and various concentrations of parthenolide for 16h. Solubilized proteins were analyzed by COX-2, IL-1α or GAPDH immunoblotting. FIG. 3A is a representative immunoblot of more than five different analyses. Data are shown for various concentrations of both parthenolide (PTN) and herbimycin A (HER). […]

Experiment [5] has as its system tyrosine phosphorylation of various proteins. The experiment in a line: LPS-stimulated tyrosine phosphorylation of various proteins in RAW 264.7 cells (antiphosphotyrosine immunoblot). Format: cell-based, murine. The following applies: 3h pretreatment, LPS 1 μg/ml 30 min; FIG. 5A. Here is the method:
as §1, §5, §3

In a further experiment the test system is IL-1α. The experiment in a line: IL-1α protein expression in LPS-stimulated alveolar macrophages (Western blot). It counts as cell-based, Rat (Sprague-Dawley). Particulars: 16h, FIG. 3A. Here is the method:
as §1, §4, §6

The next experiment deals with ERK-1. Nature of the experiment: Kinase activity of ERK-1 in RAW 264.7 cells (in-gel kinase assay, MBP substrate). Particulars: 3h pretreatment, LPS 1 μg/ml 30 min; FIG. 5. Format: cell-based, murine. Here is the method:
as §1, §2, §3

As to `C=C1C(=O)O[C@H]2[C@H]1CC/C(C)=C/CC[C@@]1(C)O[C@@H]21` [Compound 1, Parthenolide], the “kinase activity of ERK-2” value with ERK-2 [1] is on record as “dose-dependent inhibition”. In the experiment on TNFα, the “IC50, suppression of LPS-induced TNFα production” value turned out to be 0.1 mg/L. The “expression of COX-2 in RAW 264.7 cells” value with COX-2 [2] is reported as “suppressed”. The “steady state levels of mRNA for TNFα” value with TNFα mRNA is “inhibited”. For the same compound, the “tyrosine phosphorylation of ERK-2” value with ERK-2 [3] is reported as “inhibited by parthenolide in a dose-dependent manner”. Besides, the “expression of COX-2 protein” value with COX-2 [4] was “dose-dependent inhibition”. For the same compound, the “LPS-stimulated tyrosine phosphorylation of various proteins” value in [5] was “suppressed”. In addition, the “expression of IL-1α protein” value is given as “inhibited” in the experiment with IL-1α (listed as Parthenolide) and “dose-dependent inhibition” in the experiment on IL-1α (listed as parthenolide). For the same compound, the “kinase activity of ERK-1” value with ERK-1 is recorded as “dose-dependent inhibition”.
